Key:
Format in all cases: cell-based
[1] = tested on: human dermal fibroblasts from Parkinson's Disease patients; assay: Rescue of BSO-stressed fibroblasts from Parkinson's Disease patients (screen as Example A); conditions: Fibroblast, BSO-stressed Parkinson's Disease fibroblasts (AG20439), less than about 150 nM, read-out: EC50, protection against PD
Description: (§1) A culture with FRDA fibroblasts was started from a 1 ml vial with approximately 500,000 cells stored in liquid nitrogen. Cells were propagated in 10 cm cell culture dishes by splitting every third day in a ratio of 1:3 until nine plates were available. Once confluent, fibroblasts were harvested. For 54 micro titer plates (96 well-MTP) a total of 14.3 million cells (passage eight) were re-suspended in 480 ml medium, corresponding to 100 μl medium with 3,000 cells/well. The remaining cells were distributed in 10 cm cell culture plates (500,000 cells/plate) for propagation. The plates were incubated overnight at 37° C. in an atmosphere with 95% humidity and 5% CO2 to allow attachment of the cells to the culture plate.
(§2) MTP medium (243 μl) was added to a well of the microtiter plate. The test compounds were unfrozen, and 7.5 μl of a 5 mM stock solution was dissolved in the well containing 243 μl medium, resulting in a 150 μM master solution. Serial dilutions from the master solution were made. The period between the single dilution steps was kept as short as possible (generally less than 1 second).
(§3) Plates were kept overnight in the cell culture incubator. The next day, 10 μl of a 10 mM BSO solution were added to the wells, resulting in a 1 mM final BSO concentration. Forty-eight hours later, three plates were examined under a phase-contrast microscope to verify that the cells in the 0% control (wells E1-H1) were clearly dead. The medium from all plates was discarded, and the remaining liquid was removed by gently tapping the plate inversed onto a paper towel.
(§4) 100 μl of PBS containing 1.2 μM Calcein AM were then added to each well. The plates were incubated for 50-70 minutes at room temperature. After that time the PBS was discarded, the plate gently tapped on a paper towel and fluorescence (excitation/emission wavelengths of 485 nm and 525 nm, respectively) was read on a Gemini fluorescence reader. Data was imported into Microsoft Excel (EXCEL is a registered trademark of Microsoft Corporation for a spreadsheet program) and used to calculate the EC50 concentration for each compound.
Compounds of the invention were screened as described in Example A, but substituting FRDA cells with Parkinson's Disease (PD) cells obtained from the Coriell Cell Repositories (Camden, N.J.; repository number AG20439). The compounds were tested for their ability to rescue human dermal fibroblasts from Parkinson's Disease patients from oxidative stress.

[2] = tested on: human dermal fibroblasts from LHON patients; assay: Rescue of BSO-stressed fibroblasts from LHON patients (screen as Example A); conditions: Fibroblast, BSO-stressed LHON fibroblasts (GM03858), less than about 150 nM, read-out: EC50, protection against LHON
Description: as §1, §2, §3, §4
Compounds of the invention were screened as described in Example A, but substituting FRDA cells with Leber's Hereditary Optic Neuropathy (LHON) cells obtained from the Coriell Cell Repositories (Camden, N.J.; repository number GM03858). The compounds were tested for their ability to rescue human dermal fibroblasts from LHON patients from oxidative stress.

[3] = tested on: human dermal fibroblasts from Huntington's patients; assay: Rescue of BSO-stressed fibroblasts from Huntington's patients (screen as Example A); conditions: Fibroblast, BSO-stressed Huntington's fibroblasts (GM 04281), less than about 150 nM, read-out: EC50, protection against Huntington's
Description: as §1, §2, §3, §4
Compounds of the invention were tested using the screen as described in Example A, but substituting FRDA cells with Huntington's cells obtained from the Coriell Cell Repositories (Camden, N.J.; repository number GM 04281). The compounds were tested for their ability to rescue human dermal fibroblasts from Huntington's patients from oxidative stress.

[4] = tested on: Human dermal fibroblasts from Friedreich's Ataxia patients; assay: Rescue of BSO-stressed FRDA fibroblasts (Calcein AM viability); conditions: BSO-stressed FRDA fibroblasts (GM04078), less than about 150 nM, read-out: EC50, protection against FRDA
Description: An initial screen was performed to identify compounds effective for the amelioration of redox disorders. Test samples, 4 reference compounds (Idebenone, decylubiquinone, Trolox and α-tocopherol acetate), and solvent controls were tested for their ability to rescue FRDA fibroblasts stressed by addition of L-buthionine-(S,R)-sulfoximine (BSO), as described in Jauslin et al., Hum. Mol. Genet. 11(24):3055 (2002), Jauslin et al., FASEB J. 17:1972-4 (2003), and International Patent Application WO 2004/003565. […] This specific BSO-mediated cell death can be prevented by administration of antioxidants or molecules involved in the antioxidant pathway, such as α-tocopherol, selenium, or small molecule glutathione peroxidase mimetics. However, antioxidants differ in their potency, i.e. the concentration at which they are able to rescue BSO-stressed FRDA fibroblasts.
MEM (a medium enriched in amino acids and vitamins, catalog no. 1-31F24-I) and Medium 199 (M199, catalog no. 1-21F22-I) with Earle's Balanced Salts, without phenol red, were purchased from Bioconcept. Fetal Calf Serum was obtained from PAA Laboratories. Basic fibroblast growth factor and epidermal growth factor were purchased from PeproTech. Penicillin-streptomycin-glutamine mix, L-buthionine (S,R)-sulfoximine, (+)-α-tocopherol acetate, decylubiquinone, and insulin from bovine pancreas were purchased from Sigma. Trolox (6-hydroxy-2,5,7,8-tetramethylchromane-2-carboxylic acid) was obtained from Fluka. Idebenone was obtained from Chemo Iberica. Calcein AM was purchased from Molecular Probes. Cell culture medium was made by combining 125 ml M199 EBS, 50 ml Fetal Calf Serum, 100 U/ml penicillin, 100 μg/ml streptomycin, 2 mM glutamine, 10 μg/ml insulin, 10 ng/ml EGF, and 10 ng/ml bFGF; MEM EBS was added to make the volume up to 500 ml. A 10 mM BSO solution was prepared by dissolving 444 mg BSO in 200 ml of medium with subsequent filter-sterilization. During the course of the experiments, this solution was stored at +4° C. The cells were obtained from the Coriell Cell Repositories (Camden, N.J.; repository number GM04078) and grown in 10 cm tissue culture plates. Every third day, they were split at a 1:3 ratio.
The test samples were supplied in 1.5 ml glass vials. The compounds were diluted with DMSO, ethanol or PBS to result in a 5 mM stock solution. Once dissolved, they were stored at −20° C. Reference antioxidants (Idebenone, decylubiquinone, α-tocopherol acetate and trolox) were dissolved in DMSO.
Test samples were screened according to the following protocol:
as §1, §2
Plates were kept overnight in the cell culture incubator. The next day, 10 μl of a 10 mM BSO solution were added to the wells, resulting in a 1 mM final BSO concentration. Forty-eight hours later, three plates were examined under a phase-contrast microscope to verify that the cells in the 0% control (wells E1-H1) were clearly dead. […]

Measured: EC50

CC1=C(CCNC(N)=O)C(=O)C(c2ccc(Cl)cc2)=C(C)C1=O [1-(2-(5-(4-chlorophenyl)-2,4-dimethyl-3,6-dioxocyclohexa-1,4-dienyl)ethyl)urea]
< 150 nM: all assays above

CC1=C(C)C(=O)C(CCNC(=O)NCCN(C)C)=C(C)C1=O [1-(2-(dimethylamino)ethyl)-3-(2-(2,4,5-trimethyl-3,6-dioxocyclohexa-1,4-dienyl)ethyl)urea]
< 150 nM: all assays above

CC1=C(C)C(=O)C(CCNC(=O)NCCO)=C(C)C1=O [1-(2-hydroxyethyl)-3-(2-(2,4,5-trimethyl-3,6-dioxocyclohexa-1,4-dienyl)ethyl)urea]
< 150 nM: all assays above

CC1=C(C)C(=O)C(CCNC(=O)NCc2ccc(F)cc2)=C(C)C1=O [1-(4-Fluorobenzyl)-3-(2-(2,4,5-trimethyl-3,6-dioxocyclohexa-1,4-dienyl)ethyl)urea]
< 150 nM: all assays above

CC1=C(C)C(=O)C(CCNC(=O)NCc2ccc(Cl)cc2)=C(C)C1=O [1-(4-chlorobenzyl)-3-(2-(2,4,5-trimethyl-3,6-dioxocyclohexa-1,4-dienyl)ethyl)urea]
< 150 nM: all assays above

CC1=C(C)C(=O)C(CCNC(=O)NCc2cccnc2)=C(C)C1=O [1-(pyridin-3-ylmethyl)-3-(2-(2,4,5-trimethyl-3,6-dioxocyclohexa-1,4-dienyl)ethyl)urea]
< 150 nM: all assays above

CC1=C(C)C(=O)C(CCNC(=O)NCc2ccncc2)=C(C)C1=O [1-(pyridin-4-ylmethyl)-3-(2-(2,4,5-trimethyl-3,6-dioxocyclohexa-1,4-dienyl)ethyl)urea]
< 150 nM: all assays above

CC1=C(C)C(=O)C(CCNC(=O)c2ccc(C(F)(F)F)cc2)=C(C)C1=O [4-(Trifluoromethyl)-N-(2-(2,4,5-trimethyl-3,6-dioxocyclohexa-1,4-dienyl)ethyl)benzamide]
< 150 nM: [1] | [2] | [4]

CC1=C(C)C(=O)C(CCNC(=O)c2ccc(Cl)cc2)=C(C)C1=O [4-chloro-N-(2-(2,4,5-trimethyl-3,6-dioxocyclohexa-1,4-dienyl)ethyl)benzamide]
< 150 nM: [1] | [2] | [4]

CC1=C(C)C(=O)C(CCNC(=O)c2ccc(F)cc2)=C(C)C1=O [4-fluoro-N-(2-(2,4,5-trimethyl-3,6-dioxocyclohexa-1,4-dienyl)ethyl)benzamide]
< 150 nM: [1] | [2] | [4]

CC1=C(C)C(=O)C(CCCC(=O)NC(C)(C)CO)=C(C)C1=O [N-(1-hydroxy-2-methylpropan-2-yl)-4-(2,4,5-trimethyl-3,6-dioxocyclohexa-1,4-dienyl)butanamide]
< 150 nM: [1] | [4]

CC1=C(CCNS(=O)(=O)c2ccc(F)cc2)C(=O)C(c2ccc(Cl)cc2)=C(C)C1=O [N-(2-(5-(4-chlorophenyl)-2,4-dimethyl-3,6-dioxocyclohexa-1,4-dienyl)ethyl)-4-fluorobenzenesulfonamide]
< 150 nM: [1] | [3] | [4]

CC1=C(C)C(=O)C(CCC(C)C(=O)NCCO)=C(C)C1=O (stereo not drawn) [N-(2-hydroxyethyl)-2-methyl-4-(2,4,5-trimethyl-3,6-dioxocyclohexa-1,4-dienyl)butanamide]
< 150 nM: [2] | [3] | [4]

CC1=C(C)C(=O)C(CCCC(=O)NCCO)=C(C)C1=O [N-(2-hydroxyethyl)-4-(2,4,5-trimethyl-3,6-dioxocyclohexa-1,4-dienyl)butanamide]
< 150 nM: [2] | [3] | [4]

CC1=C(C)C(=O)C(CCCC(=O)Nc2cc(Cl)cc(Cl)c2)=C(C)C1=O [N-(3,5-dichlorophenyl)-4-(2,4,5-trimethyl-3,6-dioxocyclohexa-1,4-dienyl)butanamide]
< 150 nM: [2] | [3] | [4]

CC1=C(C)C(=O)C(CCC(C)C(=O)Nc2ccc(F)cc2)=C(C)C1=O (stereo not drawn) [N-(4-fluorophenyl)-2-methyl-4-(2,4,5-trimethyl-3,6-dioxocyclohexa-1,4-dienyl)butanamide]
< 150 nM: [2] | [3] | [4]

CC1=C(C)C(=O)C(CCCC(=O)Nc2cccnc2)=C(C)C1=O [N-(pyridin-3-yl)-4-(2,4,5-trimethyl-3,6-dioxocyclohexa-1,4-dienyl)butanamide]
< 150 nM: [2] | [3] | [4]

CC1=C(C)C(=O)C(CCCC(=O)NCc2cccnc2)=C(C)C1=O [N-(pyridin-3-ylmethyl)-4-(2,4,5-trimethyl-3,6-dioxocyclohexa-1,4-dienyl)butanamide]
< 150 nM: [2] | [3] | [4]
